Test results taken from patent US6165984A, “Naringin and naringenin as inhibitors of acyl CoA-cholesterol-o-acyltransferase” (Korea Institute of Science & Technology, priority 1997, dated 2000).

Legend:
ICR mice = assay: Acute oral toxicity of naringin or naringenin in mice; assay type: in vivo, mouse; details: for toxicity or mitogenicity: tests using mice
Procedure: 7 to 8 week-old, specific pathogen-free ICR female mice (6 heads) each weighing about 25 to 29 g and male mice (6 heads) each weighing about 34 to 38 g were bred under a condition of temperature 22±1° C., moisture 55±5% and photoperiod 12L/12D. Fodder (Cheiljedang Co., mouse and rat fodder) and water were sterilized and fed to the mice.
Naringin or naringenin was dissolved in 0.5% Tween 80 to a concentration of 100 mg/ml, and the solution was orally administered to the mice in an amount of 0.2 ml per 20 g of mouse body weight. […] The weight changes of the mice were recorded every day to examine the effect of naringin or naringenin. Further, on the 10th day, the mice were sacrificed and the internal organs were visually examined.

[1] = tested on: acyl CoA-cholesterol-o-acyltransferase (ACAT); assay: ACAT activity in liver microsomes of naringin- or naringenin-fed rats (Example 5); assay type: in vivo, Sprague-Dawley rat; details: liver microsomes of rats fed 0.1% compound in 1% cholesterol diet; for ACAT activity: control 806.2 ± 105.2; for % Inhibition on ACAT activity: vs control group
Source text: (§1) 30 four-week-old Sprague-Dawley rats (Taihan laboratory animal center, Korea) each weighing about 90 to 110 g were evenly divided into three dietary groups by a randomized block design. The rats of the three groups were fed with three different high-cholesterol diets, i.e., AIN-76 laboratory animal diet (ICN Biochemicals, Cleveland, Ohio, U.S.A.) containing 1% cholesterol (Control group), and 1% cholesterol plus 0.1% naringin or naringenin, respectively.
To determine the effects of naringin and naringenin feeding to rats on the activity of ACAT, microsomes were separated from the liver tissue to be used as an enzyme source.
First, the rats of the three groups prepared in Example 3 were sacrificed by decapitation and the livers were excised. 1 g each of the livers was homogenized in 5 ml of homogenization medium (0.1 M KH2 PO4, pH 7.4, 0.1 mM EDTA and 10 mM β-mercaptoethanol). The homogenate was centrifuged at 3,000×g for 10 min. at 4° C. and the supernatant thus obtained was centrifuged at 15,000×g for 15 min. at 4° C. to obtain a supernatant. The supernatant was put into an ultracentrifuge tube (Beckman) and centrifuged at 100,000×g for 1 hour at 4° C. to obtain microsomal pellets, which were then suspended in 3 ml of the homogenization medium and centrifuged at 100,000×g for 1 hour at 4° C. The pellets thus obtained were suspended in 1 ml of the homogenization medium. The concentration of proteins in the resulting suspension was determined by Lowry's method and then adjusted to 4 to 8 mg/ml. The resulting suspension was stored in a deep freezer (Biofreezer, Forma Scientific Inc.).
6.67 μl of 1 mg/ml cholesterol solution in acetone was mixed with 6 μl of 10% Triton WR-1339(Sigma Co.) in acetone and, then, acetone was removed from the mixture by evaporation using nitrogen gas. Distilled water was added to the resulting mixture in an amount to adjust the concentration of cholesterol to […].
To 10 μl of the resulting aqueous cholesterol solution were added 10 μl of 1 M KH2 PO4 (pH 7.4), 5 μl of 0.6 mM bovine serum albumin (BSA), 10 μl of microsome solution obtained in (Step 1) and 55 μl of distilled water (total 90 μl). The mixture was pre-incubated in a waterbath at 37° C. for 30 min.
10 μl of (1-^14 C) oleoyl-CoA solution (0.05 μCi, final concentration: 10 μM) was added to the pre-incubated mixture and the resulting mixture was incubated in a waterbath at 37° C. for 30 min. […]
200 μl of the resulting supernatant was put in a scintillation bottle and 4 ml of scintillation fluid (Lumac) was added thereto. The mixture was assayed for radioactivity with 1450 Microbeta liquid scintillation counter (Wallacoy, Finland). ACAT activity was calculated as picomoles of cholesteryl oleate synthesized per min. per mg protein (pmoles/min/mg protein).

[2] = literature; cited from earlier work
liver function = details: in vivo
[3] = Plasma total cholesterol, HDL-cholesterol and neutral lipid in rats on high-cholesterol diet (Example 4); assay type: in vivo, Sprague-Dawley rat; details: 1% cholesterol diet plus 0.1% compound, six weeks; for HDL-C: control 22.2; for TG (triglyceride): control 99.2 ± 18.9; for Total-C (total plasma cholesterol): control 147.8 ± 34.8
Source text: as §1
The effect of administering naringin or naringenin to rats on the plasma cholesterol and neutral lipid content was determined as follows.
(§2) Blood samples were taken from the rats of the three dietary groups and plasma HDL fractions were separated therefrom by using HDL-cholesterol reagent (Sigma Chemical Co., Cat. No. 352-3) containing dextran-sulfate. Total cholesterol and HDL-cholesterol levels were determined by using Sigma Diagnostic Kit Cat. No. 352-100(Sigma Chemical Co., U.S.A.) (Allain et al., Clin. Chem., 20, 470-475(1974)). Neutral lipid level was determined by using Sigma Diagnostic Kit Cat. No. 339-50(Bucolo, G. and David, H., Clin. Chem., 19, 476-482(1973)). The result is shown in Table III, wherein the total plasma cholesterol levels in naringin and naringenin-fed rat groups decreased by 32% and 18%, respectively, as compared with that of the control group.

[4] = Blood total cholesterol and triglyceride in cholesterol-fed rabbits (Example 6); assay type: in vivo, New Zealand White rabbit; details: 1% cholesterol diet, 6 weeks, 1 mg/kg Lovastatin, 0.1% naringin or naringenin; for Triglyceride: control 56; for Total cholesterol: control 1143
Procedure: as §2, with “U.S.A.) (Allain” left out, “group. […] RC4 diet comprises 7.6% moisture, 22.8% crude protein, 2.8% crude fat, 8.8% crude ash, 14.4% crude cellulose and 43.6% soluble nitrogen-free substances. The rabbits were bred for 6 weeks while being allowed free access to the diets and water. Further, blood samples were taken from the rabbits and total cholesterol and triglyceride levels were determined in accordance with the same procedure in Example 4.” for “group.”

[5] = single oral dose, 1,000 mg/kg, mice

| Compound | survival at day 10 (ICR mice; [5]) | weight loss (ICR mice; single oral dose, 1,000 mg/kg, mice, 10 day test period) | toxicity (ICR mice; single oral dose, 1,000 mg/kg, mice, 10 days) | pathological abnormality at autopsy (ICR mice; single oral dose, 1,000 mg/kg, mice, day 10) | toxicity or mitogenicity (ICR mice) | ACAT activity [1] | % Inhibition on ACAT activity [1] | reported activities [2] | adverse effects on the liver function (liver function) | decrease of total plasma cholesterol level compared with control group [3] | HDL-C [3] | TG (triglyceride) [3] | Total-C (total plasma cholesterol) [3] | Triglyceride [4] | Total cholesterol [4] | corresponding oral administration dose for a person weighing 50 kg (ICR mice; mouse, in vivo) |
| --- | --- | --- | --- | --- | --- | --- | --- | --- | --- | --- | --- | --- | --- | --- | --- | --- |
| O=C1C[C@@H](c2ccc(O)cc2)Oc2cc(O)cc(O)c21 [naringenin] | All the mice were alive | no weight loss | no toxicity | did not develop any pathological abnormality | little toxicity or mitogenicity | 666.3 ± 65.3 pmole/min/mg protein | 17.4% | anti-cancer, anti-viral and cholesterol lowering activities | no adverse effects on the liver function | 18% | 23.4 mg/dL | 103.4 ± 18.2 mg/dL | 120.9 ± 25.9 mg/dL | 70 mg/dL | 1350 mg/dL |  |
| C[C@@H]1O[C@@H](O[C@H]2[C@H](Oc3cc(O)c4c(c3)O[C@H](c3ccc(O)cc3)CC4=O)O[C@H](CO)[C@@H](O)[C@@H]2O)[C@H](O)[C@H](O)[C@H]1O [naringin, Naringin] | All the mice were alive |  |  |  | little toxicity or mitogenicity | 643.5 ± 80.7 pmole/min/mg protein | 20.2% | anti-cancer, anti-viral and cholesterol lowering activities | no adverse effects on the liver function | 32% | 24.0 mg/dL | 86.7 ± 14.6 mg/dL | 100.8 ± 16.1 mg/dL | 72 mg/dL | 1367 mg/dL | 50-100 g/kg body weight |
